How the values were obtained:
Format in all cases: cell-based, human
[1] = tested on: interaction between p53 and FOXO4; test: in situ PLA (proximity ligation assay) of the physical binding between p53 and FOXO4 in H2O2-treated HaCaT cells; settings: H2O2 200 μM, peptide 20 μM, 1 hour; for inhibition of the interaction between p53 and FOXO4 (PLA signals): in comparison with the control group
Description: After treating cells with the peptides of the present invention, the effects thereof on the physical binding between p53 and FOXO4 were evaluated through an in situ PLA (proximity ligation assay) method. HaCaT cells (human keratinocytes, CLS) were added at 4.5×10^4 cells per well, along with a DMEM containing 10% fetal bovine serum, to each well of a 24-well microplate and then cultured at 37° C. in a 5% CO2 incubator for 24 hours. H2O2 and the peptide solutions of Example 2 and H2O2 were added thereto so that the concentrations of H2O2 and each peptide in the medium were 200 μM and 20 μM respectively, followed by incubating for 1 hour under the same condition. As a control group, an untreated group (indicated by “control” in FIG. 1) and a group treated with H2O2 alone (indicated by “-” in FIG. 1) were used. The cells of each well were washed with PBS, fixed by treating with 2% formaldehyde for 15 minutes, and then treated with 0.1% TritonX-100 for 5 minutes to increase antibody permeability into the cells. Anti-p53 polyclonal antibody (Abcam, UK) and anti-FOXO4 polyclonal antibody (Santa Cruz, Calif., USA) were added thereto. After the PLA probe was added thereto using the in situ PLA kit (Sigma-Aldrich), hybridization, ligation, amplification and mounting steps were carried out according to the manufacturer's protocol. Each physical interaction between p53 and FOXO4 was quantified by measuring the luminescence signals (PLA signals) detected in each cell with a confocal laser microscope (Olympus fluoview FW1000; Olympus, Tokyo, Japan).

[2] = tested on: senescent ARPE-19 cells (retinal pigment epithelial cells); test: apoptosis of H2O2-induced senescent cells, X-Gal (Senescence β-Galactosidase) staining, number of remaining senescent cells; settings: ARPE-19, H2O2 25 μM 24 hours, then peptide 0.2 μM, 2 μM and 20 μM 24 hours; versus H2O2 alone ("-" group); FIGS. 3 and 4
Description: In order to evaluate the activity on the apoptosis of senescent cells by the treatment with the peptide of the present invention (the peptide of SEQ ID NO: 3) for 24 hours after inducing senescence by treating cells with H2O2, the X-Gal staining was carried out to measure the number of the remaining senescent cells. ARPE-19 cells (retinal pigment epithelial cells) were added at the density of 80% per well, along with a DMEM containing 10% fetal bovine serum, to each well of a 12-well microplate and then cultured at 37° C. in a 5% CO2 incubator for 24 hours. H2O2 was added thereto so that the concentration thereof in the medium was 25 μM, followed by incubating for 24 hours under the same condition. Thereafter, the cells in each well were washed with PBS and the peptide solution of Example 2 was added thereto so that the concentration of the peptide of SEQ ID NO: 3 was 0.2 μM, 2 μM, and 20 μM respectively, followed by incubating for 24 hours under the same condition. As a control group, an untreated group (indicated as “control” in FIGS. 3 and 4) and a group treated with H2O2 alone (indicated by “-” in FIGS. 3 and 4) were used. […] The bluish green color development detected in the senescence-induced cells was measured with a phase-contrast microscope (Olympus, Tokyo, Japan), and each number of senescent cells was quantified.

[3] = tested on: interaction between p53 and FOXO4; test: in situ PLA of p53-FOXO4 binding with ERK inhibitor (PD98059) and SHP2 inhibitor (NSC878777) in HaCaT cells; settings: H2O2 200 μM, 1 hour, FIG. 2
Description: After treating cells with the peptide of the present invention (the peptide of SEQ ID NO: 3), H2O2, a ERK inhibitor (PD98059), and a SHP2 inhibitor (NSC878777), the effects thereof on the physical binding between p53 and FOXO4 were evaluated through an in situ PLA (proximity ligation assay) method. HaCaT cells (human keratinocytes, CLS) were added at 4.5×10^4 cells per well, along with a DMEM containing 10% fetal bovine serum, to each well of a 24-well microplate and then cultured at 37° C. in a 5% CO2 incubator for 24 hours. The cells were treated with H2O2 (200 μM) and the peptide of SEQ ID NO: 3 (20 μM); or PD98059 (10 μM) or NSC878777 (10 μM) was additionally treated to the cells treated with H2O2 (200 μM) and the peptide of SEQ ID NO: 3 (20 μM), followed by incubating for 1 hour under the same condition. As a control group, an untreated group (indicated by “control” in FIG. 2) and a group treated with H2O2 alone were used. The cells of each well were washed with PBS, fixed by treating with 2% formaldehyde for 15 minutes, and then treated with 0.1% TritonX-100 for 5 minutes to increase antibody permeability into the cells. […] Each physical interaction between p53 and FOXO4 was quantified by measuring the luminescence signals (PLA signals) detected in each cell with a confocal laser microscope (Olympus fluoview FW1000; Olympus, Tokyo, Japan).

| Substance | inhibition of the interaction between p53 and FOXO4 (PLA signals) ([1]; FIG. 1) | extent of inhibition of the interaction between p53 and FOXO4 in comparison with the control group (PLA signals) ([1]; FIG. 1) | other results |
| --- | --- | --- | --- |
| Leu-Ala-Asp (LAD) [Pep 4] | remarkably inhibited | – | inhibition of the interaction between p53 and FOXO4 (PLA signals) ([1]; FIG. 1, listed as SEQ ID NO: 4): particularly excellent activity |
| Leu-Cys-Asp (LCD) [Pep 13] | remarkably inhibited | – | inhibition of the interaction between p53 and FOXO4 (PLA signals) ([1]; FIG. 1, listed as SEQ ID NO: 13): particularly excellent activity |
| Leu-Gln-Asp (LQD) [Pep 5] | remarkably inhibited | – | inhibition of the interaction between p53 and FOXO4 (PLA signals) ([1]; FIG. 1, listed as SEQ ID NO: 5): particularly excellent activity |
| Leu-Glu-Asp (LED) [Pep 1] | remarkably inhibited | two or more times | inhibition of the interaction between p53 and FOXO4 (PLA signals) ([1]; FIG. 1, listed as SEQ ID NO: 1): particularly excellent activity |
| Leu-Gly-Asp (LGD) [Pep 3] | remarkably inhibited | – | induction of apoptosis of senescent cells (number of remaining senescent cells) [2]: significantly induced the apoptosis of senescent cells; dependence of the peptide's inhibitory signal on ERK and SHP2 ([3]; peptide 20 μM plus PD98059 10 μM or NSC878777 10 μM): dependent on ERK and SHP2 activation; inhibition of the interaction between p53 and FOXO4 (PLA signals) ([3]; peptide 20 μM): significantly inhibited; inhibition of the interaction between p53 and FOXO4 (PLA signals) ([1]; FIG. 1, listed as SEQ ID NO: 3): particularly excellent activity |
| Leu-His-Asp (LHD) [Pep 14] | remarkably inhibited | two or more times | inhibition of the interaction between p53 and FOXO4 (PLA signals) ([1]; FIG. 1, listed as SEQ ID NO: 14): particularly excellent activity |
| Leu-Ile-Asp (LID) [Pep 15] | remarkably inhibited | two or more times | inhibition of the interaction between p53 and FOXO4 (PLA signals) ([1]; FIG. 1, listed as SEQ ID NO: 15): particularly excellent activity |
| Leu-Leu-Asp (LLD) [Pep 8] | remarkably inhibited | – | inhibition of the interaction between p53 and FOXO4 (PLA signals) ([1]; FIG. 1, listed as SEQ ID NO: 8): particularly excellent activity |
| Leu-Lys-Asp (LKD) [Pep 7] | remarkably inhibited | – | inhibition of the interaction between p53 and FOXO4 (PLA signals) ([1]; FIG. 1, listed as SEQ ID NO: 7): particularly excellent activity |
| Leu-Phe-Asp (LFD) [Pep 11] | remarkably inhibited | two or more times | inhibition of the interaction between p53 and FOXO4 (PLA signals) ([1]; FIG. 1, listed as SEQ ID NO: 11): particularly excellent activity |
| Leu-Pro-Asp (LPD) [Pep 17] | remarkably inhibited | two or more times | inhibition of the interaction between p53 and FOXO4 (PLA signals) ([1]; FIG. 1, listed as SEQ ID NO: 17): particularly excellent activity |
| Leu-Thr-Asp (LTD) [Pep 18] | remarkably inhibited | two or more times | inhibition of the interaction between p53 and FOXO4 (PLA signals) ([1]; FIG. 1, listed as SEQ ID NO: 18): particularly excellent activity |
| Leu-Trp-Asp (LWD) [Pep 19] | remarkably inhibited | – | inhibition of the interaction between p53 and FOXO4 (PLA signals) ([1]; FIG. 1, listed as SEQ ID NO: 19): particularly excellent activity |
| Leu-Tyr-Asp (LYD) [Pep 9] | remarkably inhibited | two or more times | inhibition of the interaction between p53 and FOXO4 (PLA signals) ([1]; FIG. 1, listed as SEQ ID NO: 9): particularly excellent activity |
| Leu-Val-Asp (LVD) [Pep 20] | remarkably inhibited | two or more times | inhibition of the interaction between p53 and FOXO4 (PLA signals) ([1]; FIG. 1, listed as SEQ ID NO: 20): particularly excellent activity |
